This is an account of results in patent US20160074399A1, “Salts of an Epidermal Growth Factor Receptor Kinase Inhibitor” (Clovis Oncology, Inc., priority 2013, published 2016).

This series can be described thus: Competitive slurry experiments Form I vs. Form III. In kind it is physicochemical. The conditions noted are these: ca. 3 days. How it is done: Competitive slurry experiments were set up in acetone, isopropanol, acetone:water (80:20) and isopropyl acetate at both room temperature (ca. 22° C.) and 60° C. Approximately 200 mg of each of Forms I and III material was placed into a vial and 4 mL of the appropriate solvent system was added to produce a slurry. For each experiment, the slurries were allowed to stir for ca. 3 days. Analysis by XRPD was then conducted to determine the form of the resultant solid. Competitive slurry experiments of Form I vs. Form III were carried out in 4 solvent systems and resulting solids were analysed by XRPD analysis (FIG. 82 and FIG. 83).

With `Br.C=CC(=O)Nc1cccc(Nc2nc(Nc3ccc(N4CCN(C(C)=O)CC4)cc3OC)ncc2C(F)(F)F)c1` [I and III], the “Result (form of resultant solid)” value runs as follows: (Acetone, 60° C.) “Form I”; (Acetone, RT (ca. 22° C.)) “Form I”; (Acetone:water (80:20), 60° C.) “Form VIII”; (Acetone:water (80:20), RT (ca. 22° C.)) “Form VIII”; (Isopropanol, 60° C.) “Form I”; (Isopropanol, RT (ca. 22° C.)) “Form I”. Also, the “Result (form of resultant solid)” value reads like this: (Isopropyl acetate, 60° C.) “Form I”; (Isopropyl acetate, RT (ca. 22° C.)) “Form I”.
